Consider eight compounds from ChEMBL document CHEMBL3044700, “Molecular modeling and protection against pentylenetetrazole-induced seizure of new 1,4-dihydropyridines containing 5(4)-imidazolyl substituent” (Med Chem Res, 2012).

Activity calls are given as the source filed them. The rule behind the calls is not given here.

One assay deals with Mus musculus. The assay is described as follows: Anticonvulsant activity in Mus musculus NMRI (mouse) assessed as protection against pentylenetetrazole-induced seizures at 20 mg/kg, ip administered 30 min prior to pentylenetetrazole induction relative to vehicle-treated control. It is filed as functional, organism-based. Set-up: dose 20 mg/kg.
As for `COC(=O)C1=C(C)NC(C)=C(C(=O)OC)C1c1ccccc1[N+](=O)[O-]`, the outcome was Active.

The next assay concerns Mus musculus. Put plainly: Anticonvulsant activity in Mus musculus NMRI (mouse) assessed as protection against pentylenetetrazole-induced seizures at 5 to 20 mg/kg, ip administered 30 min prior to pentylenetetrazole induction relative to vehicle-treated control. It counts as functional, organism-based.
For `CCc1nc(C2C(C(=O)OC)=C(C)NC(C)=C2C(=O)OCCc2ccccc2)c(Cl)[nH]1` (stereo not drawn), the outcome was Active.

`CC1=C(C(=O)OCCc2ccccc2)C(c2nc[nH]c2Cl)C(C(=O)OCCc2ccccc2)=C(C)N1`: the outcome was Active.

Consider `CC1=C(C(=O)OCCCc2ccccc2)C(c2nc[nH]c2Cl)C(C(=O)OCCCc2ccccc2)=C(C)N1`, for which the result was Active.

In the case of `CCc1nc(C2C(C(=O)OCc3ccccc3)=C(C)NC(C)=C2C(=O)OCc2ccccc2)c(Cl)[nH]1`, the outcome was Active.

As for `CCc1nc(C2C(C(=O)OCCc3ccccc3)=C(C)NC(C)=C2C(=O)OCCc2ccccc2)c(Cl)[nH]1`, the outcome was Active.

In the case of `CC1=C(C(=O)OCc2ccccc2)C(c2nc[nH]c2Cl)C(C(=O)OCc2ccccc2)=C(C)N1`, the result was Active.

Consider `CCOC(=O)C1=C(C)NC(C)=C(C(=O)OCCc2ccccc2)C1c1nc(CC)[nH]c1Cl` (stereo not drawn), for which the outcome was Active.
